In paper PMC6449538, “Antimicrobial Activity of Selected Antimicrobial Peptides Against Planktonic Culture and Biofilm of Acinetobacter baumannii” (Probiotics and Antimicrobial Proteins, 2018):
Converted amounts (≈) assume the structure as drawn. Like-named read-outs stand apart in the source and are kept apart here. Where no end group is shown, it is not given here.

Tests used:
[1] = test system: A. baumannii ATCC 19606 biofilm; assay type: cell-based, Acinetobacter baumannii
Experimental: (§1) The A. baumannii ATCC 19606 strain was acquired from the American Type Culture Collection and prepared in line with the manufacturer’s instructions. The culture was stored in Roti®-Store Cryo-Vials (Carl Roth GmbH, Karlsruhe, Germany) at − 20 °C. Before the tests, the bead with cryo-protected bacteria was transferred into fresh MHB (Biocorp, Warsaw, Poland) and incubated for 24 h at 37 °C. Then, the culture was seeded on MHA plates and incubated as just mentioned. The agar cultures prepared in this way were used for further experiments. Cell densities for all assays were adjusted spectrophotometrically (Multiskan™ GO Microplate Spectrophotometer, Thermo Scientific) at 600 nm.
The antibiofilm activity was determined on 96-well flat-bottomed microtiter polystyrene plates and 0.5-cm fragments of tracheal tubes (RIM-75, ZARYS International Group, Zabrze, Poland), with resazurin (7-hydroxy-3H-phenoxazin-3-one 10-oxide) as a cell viability reagent. The first part included assay on 96-well plates. To do this, the plates were filled with 100 μL of the initial inoculums of bacteria (0.5 × 10^7 CFU/mL) in the MHB and incubated for 24 h at 37 °C. Then, the wells were rinsed three times with PBS to remove non-adhered cells and the fresh medium with a series of concentrations (0.5–256 μg/mL) of the compounds was added. After 24 h of incubation, 20 μL of resazurin (4 mg/mL) was added to each well and the MBEC values were read. The assay on tracheal tube fragments was conducted using 24-well polystyrene plates. Briefly, the tracheal tube fragments were dipped in 1 mL of the bacterial inoculum (0.5 × 10^7 CFU/mL) and incubated at 37 °C. After 24 h of incubation, the test fragments were rinsed three times with PBS and transferred into other wells containing the fresh medium with a series of concentrations of the test compounds. Subsequently, the plates were incubated again for 24 h at 37 °C. Then, 200 μL of resazurin was added and the MBEC was read. All experiments were conducted in triplicate.

A. baumannii ATCC 19606 = experiment: microbe, parasite or virus in culture; assay type: cell-based, Acinetobacter baumannii
Experimental: as §1
The MICs and MBCs were determined with the reference to the Clinical and Laboratory Standards Institute guidelines. MICs were determined by broth microdilution method. For this purpose, initial inoculums of bacteria (0.5 × 10^5 CFU/mL) in MHB were exposed to a series of concentrations (0.5–256 μg/mL) of the compounds and incubated for 18 h at 37 °C. The experiments were conducted on 96-well microtiter polystyrene plates with the final volume of 100 μL. The MIC was taken as the lowest drug concentration at which a noticeable growth of microorganisms was inhibited. In parallel, the MIC wells, two above and one below (positive control), were cultured on a MHA plate. […] All experiments were conducted in triplicate.

[2] = 24 h biofilm on 0.5-cm tracheal tube fragments, 24 h treatment at 37 °C, resazurin read-out, triplicate
[3] = 24 h biofilm on polystyrene 96-well plates, 24 h treatment at 37 °C, resazurin read-out, triplicate
[4] = Acinetobacter baumannii, ATCC19606, MIC wells cultured on MHA plate, 24 h at 37 °C, no visible growth, triplicate, read-out: MBC
[5] = Acinetobacter baumannii, ATCC19606, broth microdilution (CLSI), MHB, inoculum 0.5 × 10^5 CFU/mL, 18 h at 37 °C, polystyrene 96-well plates, triplicate, read-out: MIC
[6] = MIC wells cultured on MHA plate, 24 h at 37 °C, no visible growth, triplicate
[7] = broth microdilution (CLSI), MHB, inoculum 0.5 × 10^5 CFU/mL, 18 h at 37 °C, polystyrene 96-well plates, triplicate

| Molecule | MBEC^tt [1, 2] [µg/mL] | MBEC [1, 3] | MBC (A. baumannii ATCC 19606; [4]) [µg/mL] | MIC (A. baumannii ATCC 19606; [5]) [µg/mL] | MBEC^tt ([1]; 24 h biofilm on 0.5-cm tracheal tube fragments, 24 h treatment at 37 °C, resazurin read-out, triplicate, listed as piperacillin) | MBEC^tt ([1]; ATCC 19606, 24 h) [µg/mL] | MIC (A. baumannii ATCC 19606; ATCC 19606, 18 h) [µg/mL] | MBC (A. baumannii ATCC 19606; ATCC 19606, 24 h) [µg/mL] | MBEC ([1]; ATCC 19606, 24 h) [µg/mL] | MBC (A. baumannii ATCC 19606; [6]) [µg/mL] | MIC (A. baumannii ATCC 19606; [7]) [µg/mL] |
| --- | --- | --- | --- | --- | --- | --- | --- | --- | --- | --- | --- |
| O=C(O)c1cn(C2CC2)c2cc(N3CCNCC3)c(F)cc2c1=O [Ciprofloxacin, reference compound] | 1 | 2 µg/mL | 1 (≈ 3.02 µM) | – | – | – | – | – | – | – | – |
| CC[C@H]1OC(=O)[C@H](C)[C@@H](O[C@H]2C[C@@](C)(OC)[C@@H](O)[C@H](C)O2)[C@H](C)[C@@H](O[C@@H]2O[C@H](C)C[C@H](N(C)C)[C@H]2O)[C@](C)(O)C[C@@H](C)C(=O)[C@H](C)[C@@H](O)[C@]1(C)O [Erythromycin, reference compound] | 16 | 32 µg/mL | 32 (≈ 43.6 µM) | 32 (≈ 43.6 µM) | – | – | – | – | – | – | – |
| CNC(C)C1CCC(N)C(OC2C(N)CC(N)C(OC3OCC(C)(O)C(NC)C3O)C2O)O1 (stereo not drawn) [Gentamicin, reference compound] | 32 | 32 µg/mL | 32 (≈ 67 µM) | 16 (≈ 33.5 µM) | – | – | – | – | – | – | – |
| CCN1CCN(C(=O)N[C@@H](C(=O)N[C@@H]2C(=O)N3[C@@H]2SC(C)(C)[C@@H]3C(=O)O)c2ccccc2)C(=O)C1=O [Piperacillin, reference compound] | > 512 | failed to eradicate the biofilm at any concentration | 128 (≈ 247 µM) | 64 (≈ 124 µM) | failed to eradicate the biofilm at any concentration | – | – | – | – | – | – |
| CO[C@H]1/C=C/O[C@@]2(C)Oc3c(C)c(O)c4c(O)c(c(/C=N/N5CCN(C)CC5)c(O)c4c3C2=O)NC(=O)/C(C)=C\C=C\[C@H](C)[C@H](O)[C@@H](C)[C@@H](O)[C@@H](C)[C@H](OC(C)=O)[C@@H]1C [Rifampicin, reference compound] | 4 | 8 µg/mL | 4 (≈ 4.86 µM) | 4 (≈ 4.86 µM) | – | – | – | – | – | – | – |
| CN(C)[C@@H]1C(O)=C(C(N)=O)C(=O)[C@@]2(O)C(O)=C3C(=O)c4c(O)cccc4[C@@](C)(O)[C@H]3C[C@@H]12 [Tetracycline, reference compound] | 4 | 16 µg/mL | 4 (≈ 9 µM) | 2 (≈ 4.5 µM) | – | – | – | – | – | – | – |
| FLPLIGRVLSGIL-NH2 [Temporin A] | – | – | – | – | – | 256 | 128 | 128 | – | – | – |
| GIGKFLKKAKKFGKAFVKILKK-NH2 [Pexiganan] | – | – | – | – | – | 32 | 2 | 4 | 256 | – | – |
| GLFDIIKKIAESF-NH2 [Aurein 1.2] | 32 | 64 µg/mL | – | – | – | – | – | – | – | 16 | 16 |
| GLFDVIKKVASVIGGL-NH2 [Citropin 1.1] | – | – | – | – | – | 32 | 16 | 16 | 256 | – | – |
| ILRWPWWPWRRK-NH2 [Omiganan] | – | – | – | – | – | 128 | 32 | 64 | 256 | – | – |
| KRRWPWWPWRLI-NH2 [r-Omiganan] | – | – | – | – | – | 128 | 16 | 16 | 256 | – | – |
| KWKLFKKIGAVLKVL-NH2 [CAMEL] | 64 | 128 µg/mL | – | – | – | – | – | – | – | 4 | 2 |
